From the NIST ThermoML archive (doi:10.1016/j.jct.2015.09.024)
Numbers after ± are expanded uncertainties.

Settings: Liquid, ATR infrared spectroscopy

vapor or sublimation pressure (295.45 K): 6020 ± 490 kPa
vapor or sublimation pressure (297.05 K): 6240 ± 500 kPa
vapor or sublimation pressure (299.05 K): 6520 ± 530 kPa
vapor or sublimation pressure (302.65 K): 7090 ± 570 kPa
vapor or sublimation pressure (303.25 K): 7180 ± 580 kPa
SMILES: O=C=O [carbon dioxide]
